Assay results: US10407381B2 (THE BOARD OF TRUSTEES OF THE UNIVERSITY OF ILLINOIS, priority 2015, dated 2019)
Read-outs that look alike come from different tables or passages of the source.

Assays:
5-HT2B = 5-HT2B (Homo sapiens, UniProt P41595); assay: Calcium flux (FLIPR) assay, human 5-HT2B stably expressed in HEK-293 (Flp-In-293) cells; conditions: for Emax, % 5-HT 5-HT2B: normalized to 5-HT
5-HT2A = 5-HT2A (Homo sapiens, UniProt P28223); assay: Calcium flux (FLIPR) assay, human 5-HT2A stably expressed in HEK-293 (Flp-In-293) cells; conditions: for Emax, % 5-HT 5-HT2A: normalized to 5-HT
Sequence of 5-HT2A (P28223 whole entry): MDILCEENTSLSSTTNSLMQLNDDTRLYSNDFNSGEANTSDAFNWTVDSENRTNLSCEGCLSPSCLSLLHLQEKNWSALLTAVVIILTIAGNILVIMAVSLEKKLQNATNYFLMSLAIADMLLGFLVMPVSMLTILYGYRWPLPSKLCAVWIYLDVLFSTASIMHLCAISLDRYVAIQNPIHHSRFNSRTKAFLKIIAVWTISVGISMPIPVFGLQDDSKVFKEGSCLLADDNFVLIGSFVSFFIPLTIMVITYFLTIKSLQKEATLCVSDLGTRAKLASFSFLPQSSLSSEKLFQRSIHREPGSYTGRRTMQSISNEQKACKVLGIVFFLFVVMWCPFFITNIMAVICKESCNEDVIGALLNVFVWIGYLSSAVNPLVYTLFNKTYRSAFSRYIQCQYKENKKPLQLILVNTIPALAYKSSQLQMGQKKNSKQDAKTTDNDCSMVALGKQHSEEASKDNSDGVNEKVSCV

human 5-HT2C-INI = target: T1, human 5-HT2C-INI (Homo sapiens, UniProt P28335); assay: Calcium flux (FLIPR) assay, human 5-HT2C-INI stably expressed in HEK-293 (Flp-In-293) cells; conditions: human 5-HT2C-INI in HEK-293 cells, FLIPR; for EC50: NA = no activity at 10 μM; for Emax, % 5-HT 5-HT2C: normalized to 5-HT
T1 sequence (P28335 33-458): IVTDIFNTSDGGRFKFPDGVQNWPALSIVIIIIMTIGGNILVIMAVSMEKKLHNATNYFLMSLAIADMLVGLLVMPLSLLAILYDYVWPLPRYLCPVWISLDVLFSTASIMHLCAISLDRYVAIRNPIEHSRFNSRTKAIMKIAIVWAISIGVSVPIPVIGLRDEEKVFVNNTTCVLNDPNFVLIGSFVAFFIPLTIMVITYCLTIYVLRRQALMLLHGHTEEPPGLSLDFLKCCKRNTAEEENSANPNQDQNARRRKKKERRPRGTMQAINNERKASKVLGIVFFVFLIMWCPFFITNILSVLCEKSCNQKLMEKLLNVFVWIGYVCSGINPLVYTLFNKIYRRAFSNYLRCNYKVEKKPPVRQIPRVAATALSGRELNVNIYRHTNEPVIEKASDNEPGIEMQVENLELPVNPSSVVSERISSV

[1] = EC50, nM 5-HT2B, human 5-HT2B in HEK-293 cells, NA = no activity at 10 μM
[2] = EC50, nM 5-HT2A, human 5-HT2A in HEK-293 cells, FLIPR, NA = no activity at 10 μM
[3] = human 5-HT2A in HEK-293 cells, FLIPR
[4] = read-out: EC50, nM 5-HT2B, human 5-HT2B in HEK-293 cells, NA = no activity at 10 μM
[5] = read-out: EC50, nM 5-HT2A, human 5-HT2A in HEK-293 cells, FLIPR, NA = no activity at 10 μM

Sequence of 5-HT2B (P41595 whole entry): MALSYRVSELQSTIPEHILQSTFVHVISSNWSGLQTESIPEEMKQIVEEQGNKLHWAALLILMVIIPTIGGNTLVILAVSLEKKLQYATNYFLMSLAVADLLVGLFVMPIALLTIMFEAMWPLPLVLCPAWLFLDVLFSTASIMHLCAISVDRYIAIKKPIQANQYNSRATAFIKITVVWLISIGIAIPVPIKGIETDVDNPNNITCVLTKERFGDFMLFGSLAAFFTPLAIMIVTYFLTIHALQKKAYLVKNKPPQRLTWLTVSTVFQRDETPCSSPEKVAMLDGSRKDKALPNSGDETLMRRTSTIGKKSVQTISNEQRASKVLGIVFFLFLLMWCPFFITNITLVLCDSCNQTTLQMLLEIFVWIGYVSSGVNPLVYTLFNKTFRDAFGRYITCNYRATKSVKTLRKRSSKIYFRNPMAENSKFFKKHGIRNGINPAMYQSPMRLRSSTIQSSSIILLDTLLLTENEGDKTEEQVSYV

SMILES	EC50 (5-HT2B; [1]) [nM]	Emax, % 5-HT 5-HT2B (5-HT2B; human 5-HT2B in HEK-293 cells)	EC50 (5-HT2A; [2]) [nM]	Emax, % 5-HT 5-HT2A (5-HT2A; [3])	EC50 (human 5-HT2C-INI; EC50, nM 5-HT2C) [nM]	Emax, % 5-HT 5-HT2C (human 5-HT2C-INI)	EC50 (5-HT2B; [4]) [nM]	EC50 (5-HT2A; [5]) [nM]	EC50 (human 5-HT2C-INI; read-out: EC50, nM 5-HT2C) [nM]	EC50 (5-HT2A) [nM]	EC50 (5-HT2A; EC50, nM 5-HT2A) [nM]
COc1ccc(Cl)c(F)c1[C@@H]1C[C@H]1CN (single isomer, unassigned) [(+)-Example 29, (+)-(2-(3-chloro-2-fluoro-6-methoxyphenyl)cyclopropyl)methanamine]	354	(52%) % 5-HT	212	(85%) % 5-HT	13	(92%) % 5-HT					
CCCOc1ccc(F)c(F)c1C1CC1CN (single isomer, unassigned; (+)) [(+)-Example 48, (+)-(2-(2,3-Difluoro-6-propoxyphenyl)cyclopropyl)methanamine]	4220	(39%) % 5-HT	2070	(18%) % 5-HT	47	(90%) % 5-HT					
COc1cc(Cl)c(Cl)cc1C1CC1CN (single isomer, unassigned; (-)) [(−)-Example 33, (−)-(2-(4,5-Dichloro-2-methoxyphenyl)cyclopropyl)methanamine]		(16%) % 5-HT		(75%) % 5-HT		(89%) % 5-HT	696	84	14		
C=CCOc1ccc(Cl)c(F)c1C1CC1CN (single isomer, unassigned; (-)) [(−)-Example 32, (−)-(2-(6-(Allyloxy)-3-chloro-2-fluorophenyl)cyclopropyl)methanamine]		(5%) % 5-HT		(16%) % 5-HT	165	(87%) % 5-HT				1080	
CCOc1cc(F)c(F)cc1C1CC1CN (single isomer, unassigned; (+)) [(+)-Example 41, (+)-(2-(2-Ethoxy-4,5-difluorophenyl)cyclopropyl)methanamine]	55	(59%) % 5-HT	260	(69%) % 5-HT	2.9	(105%) % 5-HT					
COc1ccc(F)c(F)c1[C@@H]1C[C@H]1CN (single isomer, unassigned) [(+)-Example 45, (+)-(2-(2,3-Difluoro-6-methoxyphenyl)cyclopropyl)methanamine]	209	(64%) % 5-HT	437	(79%) % 5-HT	9.5	(108%) % 5-HT					
CCOc1cc(F)c(F)cc1C1CC1CN (single isomer, unassigned; (-)) [(−)-Example 41, (−)-(2-(2-Ethoxy-4,5-difluorophenyl)cyclopropyl)methanamine]	299	(35%) % 5-HT	778	(52%) % 5-HT	33	(103%) % 5-HT					
CCCOc1cc(F)c(F)cc1C1CC1CN (single isomer, unassigned; (+)) [(+)-Example 43, (+)-(2-(4,5-Difluoro-2-propoxyphenyl)cyclopropyl)methanamine]	2540	(24%) % 5-HT		(23%) % 5-HT	26	(93%) % 5-HT					805
COc1ccc(F)c(Cl)c1C1CC1CN (single isomer, unassigned; (+)) [(+)-Example 50, (+)-(2-(2-Chloro-3-fluoro-6-methoxyphenyl)cyclopropyl)methanamine]		(60%) % 5-HT		(77%) % 5-HT		(88%) % 5-HT		769	24		
NCC1CC1c1cc(Cl)ccc1OCC(F)F (single isomer, unassigned; (-)) [(−)-Example 21, (−)-(2-(5-Chloro-2-(2,2-difluoroethoxy)phenyl)cyclopropyl)methanamine]	1480	(30%) % 5-HT	1300	(43%) % 5-HT	914	(64%) % 5-HT					
C=CCOc1ccc(Cl)c(Cl)c1C1CC1CN (single isomer, unassigned; (-)) [(−)-Example 39]		(99%) % 5-HT		(32%) % 5-HT		(93%) % 5-HT	3960	426	108		
COc1cc(F)c(F)cc1C1CC1CN (single isomer, unassigned; (+)) [(+)-Example 40, (+)-(2-(4,5-Difluoro-2-methoxyphenyl)cyclopropyl)methanamine]		(69%) % 5-HT				(108%) % 5-HT		81			
CCOc1ccc(Cl)c(Cl)c1C1CC1CN (single isomer, unassigned; (-)) [(−)-Example 37, (−)-(2-(2,3-Dichloro-6-ethoxyphenyl)cyclopropyl)methanamine]	6830	(53%) % 5-HT	625	(12%) % 5-HT	30	(104%) % 5-HT					
C#CCOc1ccc(Cl)cc1C1CC1CN (single isomer, unassigned; (+)) [(+)-Example 26, (+)-(2-(5-Chloro-2-(prop-2-yn-1-yloxy)phenyl)cyclopropyl)methanamine]	4600	(29%) % 5-HT	1010	(21%) % 5-HT	63	(65%) % 5-HT					
CCOc1ccc(Cl)c(Cl)c1C1CC1CN (single isomer, unassigned; (+)) [(+)-Example 37, (+)-(2-(2,3-Dichloro-6-ethoxyphenyl)cyclopropyl)methanamine]	1310	(61%) % 5-HT	976	(32%) % 5-HT	91	(101%) % 5-HT					
NCC1CC1c1c(OCCF)ccc(Cl)c1Cl (single isomer, unassigned; (+)) [(+)-Example 38, (+)-(2-(2,3-Dichloro-6-(2-fluoroethoxy)phenyl)cyclopropyl)methanamine]	5520	(99%) % 5-HT		(22%) % 5-HT	232	(90%) % 5-HT				949	
COc1ccc(Cl)c(Cl)c1C1CC1CN (single isomer, unassigned; (-)) [(−)-Example 36, (−)-(2-(2,3-Dichloro-6-methoxyphenyl)cyclopropyl)methanamine]		(62%) % 5-HT		(88%) % 5-HT		(104%) % 5-HT	51	38	0.95		
CCOc1cc(F)c(Cl)cc1C1CC1CN (single isomer, unassigned; (+)) [(+)-Example 2, (+)-(2-(5-Chloro-2-ethoxy-4-fluorophenyl)cyclopropyl)methanamine]	286	(82%) % 5-HT	194	(66%) % 5-HT	4.1	(92%) % 5-HT					
